The numbers were not newly measured in patent US20220305218A1, “LUMINAL OXYGEN DELIVERY AND DEVICE FOR TREATING DISEASES AND CONDITIONS ASSOCIATED WITH STRICT ANAEROBIC MICROORGANISMS” (priority 2021, published 2022), which cites them from elsewhere.

SMILES strings stand for the structures.

As for `O=O` [oxygen], in the series with C. difficile (room air (20% oxygen, 160 mm Hg)), the “time C. difficile can persist in a vegetative state” value was approximately 24 h. Besides, the “oxygen partial pressure at which C. difficile is unable to grow” value with C. difficile (strict, obligate anaerobe) was not below 3 mm Hg.

With `CN[C@H](CC(C)C)C(=O)N[C@H]1C(=O)N[C@@H](CC(N)=O)C(=O)N[C@H]2C(=O)N[C@H]3C(=O)N[C@H](C(=O)N[C@H](C(=O)O)c4cc(O)cc(O)c4-c4cc3ccc4O)[C@H](O)c3ccc(c(Cl)c3)Oc3cc2cc(c3O[C@@H]2O[C@H](CO)[C@@H](O)[C@H](O)[C@H]2O[C@H]2C[C@](C)(N)[C@H](O)[C@H](C)O2)Oc2ccc(cc2Cl)[C@H]1O` [vancomycin], in the series on C. difficile strains, the resistance rate is recorded as approximately 1%.

With `Cc1ncc([N+](=O)[O-])n1CCO` [metronidazole], the resistance rate in the series on C. difficile strains is reported as approximately 1%.
